According to patent US20230399341A1, “7-PHENYL SUBSTITUTED 2-AMINOQUINAZOLINE INHIBITORS OF HPK1” (MERCK SHARP & DOHME LLC, priority 2020, published 2023):

Target: T1, Human HPK1, catalytic domain (Homo sapiens, UniProt Q92918)
T1 sequence (Q92918 1-346): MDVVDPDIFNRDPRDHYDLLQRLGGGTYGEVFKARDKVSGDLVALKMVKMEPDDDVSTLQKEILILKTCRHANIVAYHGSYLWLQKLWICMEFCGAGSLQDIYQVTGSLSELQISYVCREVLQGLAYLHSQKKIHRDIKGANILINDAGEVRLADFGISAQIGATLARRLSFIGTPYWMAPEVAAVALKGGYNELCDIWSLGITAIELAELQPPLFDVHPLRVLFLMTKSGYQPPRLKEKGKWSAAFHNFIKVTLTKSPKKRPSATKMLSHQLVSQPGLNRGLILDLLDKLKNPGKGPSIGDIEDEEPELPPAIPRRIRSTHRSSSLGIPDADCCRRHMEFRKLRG
Assay: HPK1-SLP76 TR-FRET Assay
Format: biochemical
Conditions: 75 pM HPK1, ATP 10 uM, SLP76 10 nM, 30 min pre-incubation, 60 min reaction

Compound: COc1cc2c(cc1Nc1ncc3ccc(-c4c(C)cccc4F)cc3n1)CN(C)CC2 [Compound 1-5, 7-(2-fluoro-6-methylphenyl)-N-(6-methoxy-2-methyl-1,2,3,4-tetrahydroisoquinolin-7-yl)quinazolin-2-amine]
- IC50: 230 nM

Compound: COc1cc2c(cc1Nc1ncc3ccc(-c4ccc5c(c4)CCN5)cc3n1)CNCC2 [Compound 1-87, 7-(2,3-dihydro-1H-indol-5-yl)-N-(6-methoxy-1,2,3,4-tetrahydroisoquinolin-7-yl)quinazolin-2-amine]
- IC50: 49.2 nM

Compound: COc1cc2c(cc1Nc1ncc3c(N)c(F)c(Nc4cc(CO)ccn4)cc3n1)CN(C)CC2 [Compound 3-80, [2-({5-amino-6-fluoro-2-[(6-methoxy-2-methyl-1,2,3,4-tetra-hydroisoquinolin-7-yl)amino]-quinazolin-7-yl}amino)pyridin-4-yl]methanol]
- IC50: 2.81 nM

Compound: Cc1c(-c2cc3nc(Nc4ccc(C5(C#N)CC5)cc4)ncc3c(N)c2F)cnc2c1NCCO2 [Compound 2-18, 1-(4-{[5-amino-6-fluoro-7-(8-methyl-2,3-dihydro-1H-pyrido[2,3-b][1,4]oxazin-7-yl)quinazolin-2-yl]amino}phenyl)cyclo-propane-1-carbonitrile]
- IC50: 0.382 nM

Compound: COc1cc2c(cc1Nc1ncc3ccc(Nc4cccc(N5CCN(C)C5=O)c4)cc3n1)CN(C)CC2 [Compound 3-43, 1-[3-({2-[(6-methoxy-2-methyl-1,2,3,4-tetrahydroisoquinolin-7-yl)amino]quinazolin-7-yl}-amino)phenyl]-3-methylimidaz-olidin-2-one]
- IC50: 68.5 nM

Compound: Cc1c(-c2cc3nc(Nc4ccc(CS(=O)(=O)CC(F)(F)F)cc4)ncc3c(N)c2F)cnc2c1NCCO2 [Compound 2-149, 6-fluoro-7-(8-methyl-2,3-dihydro-1H-pyrido[2,3-b][1,4]oxazin-7-yl)-N~2~- {4-[(2,2,2-trifluoroethanesulfonyl)methyl]phenyl}quinazoline-2,5-diamine]
- IC50: 0.194 nM

Compound: COc1cc2c(cc1Nc1ncc3ccc(NC4CCCC(O)C4)cc3n1)CN(C)CC2 (racemic) [Compound 3-39, (±)-3-({2-[(6-methoxy-2-methyl-1,2,3,4-tetrahydroisoquinolin-7-yl)amino]quinazolin-7-yl}-amino)cyclohexan-1-ol]
- IC50: 228 nM

Compound: COc1cc2c(cc1Nc1ncc3ccc(-c4cccc5nc(N)[nH]c45)cc3n1)CNCC2 [Compound 1-73]
- IC50: 88.5 nM

Compound: COc1ccncc1Nc1ncc2c(N)c(F)c(-c3cnc4c(c3C)NCCO4)cc2n1 [Compound 2-20, 6-fluoro-N~2~-(4-methoxypyridin-3-yl)-7-(8-methyl-2,3-dihydro-1H-pyrido[2,3-b][1,4]oxazin-7-yl)quinazoline-2,5-diamine]
- IC50: 76.1 nM

Compound: COc1cc2c(cc1Nc1ncc3ccc(-c4cccc(CN5CCCCC5)c4)cc3n1)CNCC2 [Compound 1-69, N-(6-methoxy-1,2,3,4-tetrahydroisoquinolin-7-yl)-7-{3-[(piperidin-1-yl)methyl]phenyl}quinazolin-2-amine]
- IC50: 215 nM

Compound: Cc1c(-c2c(F)c(N)c3cnc(Nc4ccc(N5CCOC5=O)cc4)nc3c2Cl)cnc2c1NCCO2 (single isomer, unassigned) [Compound 2-156]
- IC50: 0.235 nM

Compound: Cc1c(-c2cc3nc(Nc4ccc5c(c4)CN(C(C)C)CC5)ncc3c(N)c2F)cnc2c1NCCO2 [Compound 2-76, 6-fluoro-7-(8-methyl-2,3-dihydro-11H-pyrido[2,3-b][1,4]oxazin-7-yl)-N˜2˜-[2-(propan-2-yl)-1,2,3,4-tetrahydroisoquinolin-7-yl]quinazoline-2,5-diamine]
- IC50: 0.0321 nM

Compound: Cc1c(-c2cc3nc(Nc4ccccc4C4CC4)ncc3c(N)c2F)cnc2c1NCCO2 [Compound 2-26, N~2~-(2-cyclopropylphenyl)-6-fluoro-7-(8-methyl-2,3-dihydro-1H-pyrido[2,3-b][1,4]oxazin-7-yl)quinazoline-2,5-diamine]
- IC50: 11.5 nM

Compound: COc1cc2c(cc1Nc1ncc3c(N)c(F)c(-c4cnc5c(c4C)NCCO5)cc3n1)CN(C)CC2(C)C [Compound 2-75, 6-fluoro-N~2~-(6-methoxy-2,4,4-trimethyl-1,2,3,4-tetrahydroisoquinolin-7-yl)-7-(8-methyl-2,3-dihydro-1H-pyrido[2,3-b][1,4]oxazin-7-yl)quinazoline-2,5-diamine]
- IC50: 0.325 nM

Compound: COc1cc2c(cc1Nc1ncc3ccc(-c4cccc(-c5cn[nH]c5)c4)cc3n1)CNCC2 [Compound 1-56, N-(6-methoxy-1,2,3,4-tetrahydroisoquinolin-7-yl)-7-[3-(1H-pyrazol-4-yl)phenyl]quinazolin-2-amine]
- IC50: 204 nM

Compound: CNC(=O)c1ccc(-c2ccc3cnc(Nc4cc5c(cc4OC)CCNC5)nc3c2)cn1 [Compound 1-28, 5-{2-[(6-methoxy-1,2,3,4-tetrahydroisoquinolin-7-yl)amino]quinazolin-7-yl}-N-methylpyridine-2-carboxamide]
- IC50: 198 nM

Compound: COc1cc2c(cc1Nc1ncc3ccc(-c4cncc(C#N)c4)cc3n1)CNCC2 [Compound 1-36, 5-{2-[(6-methoxy-1,2,3,4-tetrahydroisoquinolin-7-yl)amino]quinazolin-7-yl}pyridine-3-carbonitrile]
- IC50: 182 nM

Compound: COc1cc2c(cc1Nc1ncc3c(N)c(F)c(-c4ccccc4-c4ccnn4C)cc3n1)CN(C)CC2 [Compound 2-65, 6-fluoro-N~2~-(6-methoxy-2-methyl-1,2,3,4-tetrahydroisoquinolin-7-yl)-7-[2-(1-methyl-1H-pyrazol-5-yl)phenyl]quinazoline-2,5-diamine]
- IC50: 16.6 nM

Compound: COc1cc2c(cc1Nc1ncc3ccc(-c4cnc(N)nc4C)cc3n1)CN(C)CC2 [Compound 1-19, 7-(2-amino-4-methylpyrimidin-5-yl)-N-(6-methoxy-2-methyl-1,2,3,4-tetrahydroisoquinazolin-7-yl)quinazolin-2-amine]
- IC50: 2.57 nM

Compound: COc1c(Nc2ncc3c(N)c(F)c(-c4cnc5c(c4C)NCCO5)cc3n2)ccc2c1CCNC(=O)C2 [Compound 2-21]
- IC50: 487 nM

Compound: Cc1c(-c2cc3nc(Nc4ccccc4Cl)ncc3c(N)c2F)cnc2c1NCCO2 [Compound 2-31, N~2~-(2-chlorophenyl)-6-fluoro-7-(8-methyl-2,3-dihydro-1H-pyrido[2,3-b][1,4]oxazin-7-yl)quinazoline-2,5-diamine]
- IC50: 4.62 nM

Compound: CCNS(=O)(=O)c1cccc(-c2ccc3cnc(Nc4cc5c(cc4OC)CCNC5)nc3c2)c1 [Compound 1-84, N-ethyl-3-{2-[(6-methoxy-1,2,3,4-tetrahydroisoquinolin-7-yl)amino]quinazolin-7-yl}benzene-1-sulfonamide]
- IC50: 53.7 nM

Compound: Cc1c(-c2cc3nc(Nc4ccc5c(c4)CCS(=O)(=O)C5)ncc3c(N)c2F)cnc2c1NCCO2 [Compound 2-138, 6-{[5-amino-6-fluoro-7-(8-methyl-2,3-dihydro-1H-pyrido[2,3-b][1,4]oxazin-7-yl)quinazolin-2-yl]amino}-3,4-dihydro-2-benzothiopyran-2,2(1H)-dione]
- IC50: 0.068 nM

Compound: CCS(=O)(=O)Cc1ccc(Nc2ncc3c(N)c(F)c(-c4cnc5c(c4C)NCCO5)cc3n2)c(F)c1 [Compound 2-143, N~2~-{4-[(ethylsulfonyl)methyl]-2-fluorophenyl}-6-fluoro-7-(8-methyl-2,3-dihydro-1H-pyrido[2,3-b][1,4]oxazin-7-yl)quinazoline-2,5-diamine]
- IC50: 0.0888 nM

Compound: COc1cc(F)ccc1Nc1ncc2c(N)c(F)c(-c3cnc4c(c3C)NCCO4)cc2n1 [Compound 2-69, 6-fluoro-N~2~-(4-fluoro-2-methoxyphenyl)-7-(8-methyl-2,3-dihydro-1H-pyrido[2,3-b][1,4]oxazin-7-yl)quinazoline-2,5-diamine]
- IC50: 0.51 nM

Compound: COc1cc2c(cc1Nc1ncc3ccc(N4CCn5c(C)nnc5C4)cc3n1)CN(C)CC2 [Compound 3-57, N-(6-methoxy-2-methyl-1,2,3,4-tetrahydroisoquinolin-7-yl)-7-(3-methyl-5,6-dihydro[1,2,4]-triazolo[4,3-a]pyrazin-7(8H)-yl)quinazolin-2-amine]
- IC50: 799 nM

Compound: Cc1c(-c2c(F)c(N)c3cnc(Nc4ccc(CC(C)(C)O)cc4)nc3c2Cl)cnc2c1NCCO2 [Compound 2-164, 1-(4-{[5-amino-8-chloro-6-fluoro-7-(8-methyl-2,3-dihydro-1H-pyrido[2,3-b][1,4]oxazin-7-yl)quinazolin-2-yl]amino}phenyl)-2-methylpropan-2-ol]
- IC50: 0.487 nM

Compound: CNC(=O)C(F)(F)c1ccc(Nc2ncc3cc(F)c(-c4cnc5c(c4C)NCCO5)cc3n2)cc1 [Compound 1-122, 2,2-difluoro-2-(4-{[6-fluoro-7-(8-methyl-2,3-dihydro-1H-pyrido[2,3-b][1,4]oxazin-7-yl)quinazolin-2-yl]amino}phenyl)-N-methylacetamide]
- IC50: 0.532 nM

Compound: Cc1c(-c2cc3nc(Nc4cnc5c(c4)CN(C(C)C)CC5)ncc3c(N)c2F)cnc2c1NCCO2 [Compound 2-175, 6-fluoro-7-(8-methyl-2,3-dihydro-1H-pyrido[2,3-b][1,4]oxazin-7-yl)-N~2~- [6-(propan-2-yl)-5,6,7,8-tetrahydro-1,6-naphthyridin-3-yl]quinazoline-2,5-diamine]
- IC50: 0.0298 nM

Compound: Cc1c(-c2cc3nc(Nc4ccc5c(c4)CN(C)CC5)ncc3c(N)c2F)cnc2c1NCC(C)O2 (single isomer, unassigned) [Compound 2-141, (R or S)-7-(3,8-dimethyl-2,3-dihydro-1H-pyrido[2,3-b][1,4]oxazin-7-yl)-6-fluoro-N2-(2-methyl-1,2,3,4-tetrahydroisoquinolin-7-yl)quinazoline-2,5-diamine]
- IC50: 0.0505 nM

Compound: COc1cc2c(cc1Nc1ncc3ccc(Nc4nccc(CO)n4)cc3n1)CN(C)CC2 [Compound 3-35, [2-({2-[(6-methoxy-2-methyl-1,2,3,4-tetrahydroisoquinolin-7-yl)amino]quinazolin-7-yl}-amino)pyrimidin-4-yl]methanol]
- IC50: 1.67 nM
